Experimental data reported in US20250145576A1, “CATHEPSIN K INHIBITOR, AND PREPARATION METHOD THEREFOR AND USE THEREOF” (SHANDONG NEW TIME PHARMACEUTICAL CO., LTD., priority 2022, published 2025).

How the values were obtained:
[1] = Intrinsic clearance rate and half-life in rat liver microsomes; type: in vitro ADME; conditions: for half-life: rat
Protocol: 1 mL of a dichloromethane solution was respectively added into centrifuge tubes filled with test substance powders K2 (molecular formula C23H27N3O4, 4.6 mg), K3 (molecular formula C23H26FN3O4, 5.0 mg) and K4 (molecular formula C23H25F2N3O4, 5.6 mg) for dissolving, and subjected to ultrasonic treatment for 30 min to obtain a K2 stock solution with the mass concentration of 4.6 mg/mL, a K3 stock solution with the mass concentration of 5.0 mg/mL and a K4 stock solution with the mass concentration of 5.6 mg/mL. The stock solutions were sealedly stored in a refrigerator at −20° C. for later use. Before use, the stock solutions were gradually diluted with methanol to corresponding mass concentration to respectively prepare 0.02, 0.05, 0.22, 0.49, 0.96, 2.37 and 4.90 ng/mL of K2 series standard sample working solutions, 0.02, 0.05, 0.10, 0.19, 1.00, 2.01 and 4.93 ng/mL K3 series standard sample working solutions, and 0.10, 0.20, 0.53, 0.96, 2.42, 5.10 and 10.10 ng/mL K4 series standard sample working solutions.
5 μL of the test drugs, 2 μL of rat liver microsomes and 468 μL of a PBS buffer solution were taken by using a pipette and prepared a premixed solution. The premixed solution was incubated for 5 min in a water bath kettle at 37° C., 47.5 μL of the premixed solution was taken after the incubation was finished, and the premixed solution, 100 μL of ice-cold acetonitrile and 2.5 μL of a PBS buffer solution were added to another new tube after to be gently mixed evenly to obtain a control group. The reaction was started by adding 22.5 μL of a NADPH solution to the remaining premixed solution, the reaction solution was gently pipetted, and the reaction was stopped by immediately taking 50 μL of the premixed solution and 100 μL of acetonitrile in a new tube. Then the incubation liquid was put into the water bath for incubation, 50 μL of the incubation liquid was respectively taken at 5 min, 10 min, 20 min, 30 min, 45 min, 60 min and 90 min, and the reaction was terminated by adding 100 μL of acetonitrile. The reaction solution was centrifuged at 12,000 r/min for 10 min, and the supernatant was taken and detected on a machine.
• Chromatographic column: Hypersil GOLD 100*2.1 mm 3 μm liquid chromatography column • Mobile phase: 0.1% formic acid aqueous solution (A); and 100% acetonitrile (B) • Gradient elution (0-1 min: 50% B, 1-5 min: 50% B-90% B, 5-7 min: 90% B, 7-7.1 min: 50% B, and 7.1-10 min: 50% B) • Flow rate: 0.3 ml/min; column temperature: 40° C.; and injection volume: 5 μL […]
Sample solutions were subjected to sample injection analysis under the chromatographic and mass spectrometry conditions, and the peak areas were recorded. […]

Cathepsin K = Cathepsin K (Homo sapiens (Human), UniProt P43235); assay: Cat K inhibitor screening kit, AFC substrate fluorescence; type: biochemical
Protocol: Reagent information: Cat K inhibitor screening kit: batch number, 6L23K01500; supplier, BiVision. Drug preparation: compounds were dissolved in DMSO and prepared into 10 mM stock solutions. When in use, the stock solutions were prepared into the required concentrations by using a buffer.
Cathepsin K (CTSK, EC 3.4.22.38) is a lysosomal cysteine protease, participates in osteoclastic bone remodeling and resorption, and can further degrade collagen, gelatin and elastin. The cathepsin K inhibitor screening kit from Biovision uses the ability of the active cathepsin K to cleave a synthetic AFC-based peptide substrate to release AFC and the AFC can be easily quantified by using a fluorometer or fluorescent microplate reader. In the presence of a specific cathepsin K specific inhibitor, the cleavage of the substrate is reduced/eliminated, resulting in a reduction or complete loss of AFC fluorescence. The simple and high-throughput adaptive assay kit can be used to screen/study/characterize a potential inhibitor of the cathepsin K.
(§1) 20 μL of a buffer, a Cat K inhibitor and test compounds (1 μM and 10 μM) were added to 96-well plates to serve as an EC well, an IC well and an S well, respectively; 50 μL of a Cat K enzyme solution was added into all the wells respectively and the mixture was incubated for 10-15 min at room temperature to establish an enzyme inhibitor complex; 30 μL of a Cat K substrate solution was added into all the wells and the mixture was incubated for 30-60 min at room temperature; and the final volume of the reaction was 100 μL.
The screening method was the same as 1.1, the concentrations of the test compounds were set between 0.1 nM and 10 μM, 4-5 concentrations were selected for detection, IC50 curves were drawn, and IC50 values were calculated.

Cathepsin S = assay: Screening of Cathepsin S, fluorescence; type: biochemical; conditions: >> inhibition rate did not exceed 20% at test concentration; > greater than 35%; ≈ about 50%; < less than 50%
Protocol: as §1, with “10 μL of” for “20 μL of”, “a Cat S inhibitor and” for “a Cat K inhibitor and”, “a […]” for “a Cat K enzyme solution”, “inhibitor complex; 40 μL of” for “inhibitor complex; 30 μL of”, “a Cat S substrate solution” for “a Cat K substrate solution”
(§2) The screening method was the same as above, the concentrations of the test compounds were set between 0.1 nM and 10 μM, 4-5 concentrations were selected for detection, IC50 curves were drawn, and IC50 values were calculated.

Cathepsin B = Cathepsin B (Homo sapiens (Human), UniProt P07858); assay: Screening of Cathepsin B, fluorescence; type: biochemical; conditions: >> inhibition rate did not exceed 20% at test concentration; > greater than 35%; ≈ about 50%; < less than 50%
Protocol: as §1, with “10 μL” for “20 μL”, “Cat B” for “Cat K”, “complex; 40” for “complex; 30”
as §2

C4-2B cells = assay: Migration, invasion and adhesion of C4-2B cells; type: cell-based; conditions: preliminary
ICR mice = assay: In-vivo toxicity study, single and multiple i.p. administration; conditions: for body weight vs vehicle group: all P>0.05
Protocol: Male ICR mice of 6-8 weeks were used as experimental subjects and randomly divided according to body weight after adaptive feeding for one week. Then compounds of different concentrations were prepared and used for single-administration and multiple-administration experiments by intraperitoneal injection (i.p), and a vehicle of the same component was used as a reference.
During this period, the body weight of the mice was measured daily. […] In the multiple-administration experiment, the administration doses of 50 mg/kg and 25 mg/kg were selected for administration at the frequency of once a day.

Chain of Cathepsin K (P43235 115-329): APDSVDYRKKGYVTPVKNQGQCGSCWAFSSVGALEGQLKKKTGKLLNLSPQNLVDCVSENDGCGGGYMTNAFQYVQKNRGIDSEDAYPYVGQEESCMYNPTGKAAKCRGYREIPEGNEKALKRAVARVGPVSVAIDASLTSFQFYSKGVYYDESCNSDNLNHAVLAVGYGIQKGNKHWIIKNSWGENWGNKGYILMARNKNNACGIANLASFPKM

Row | IC50 (Cathepsin K) [nM] | half-life [1] [min] | SMILES | Cat S/K ratio of inhibitory activities (Cathepsin S) | Cat B/K ratio of inhibitory activities (Cathepsin B) | further results
1 | 10 to 100 | 42.4 | O=C1COC[C@@H]1NC(=O)[C@@H]1CCCC[C@H]1C(=O)N1CCc2c([nH]c3c(F)cccc23)C1 [Compound K21, (1R,2R)-2-(8-fluoro-2,3,4,9-tetrahydro-1H-pyrido[3,4-b]indole-2-carbonyl)-N—((S)-4-oxotetrahydrofuran-3-yl)cyclohexane-1-carboxamide] | >710 | >710 | 
2 | 10 to 100 | 46.6 | O=C1COCC1NC(=O)[C@@H]1CCCC[C@H]1C(=O)N1CCc2[nH]c3ccccc3c2C1 (stereo partly drawn) [Compound K20, (1R,2R)-2-(2,3,4,5-tetrahydro-1H-pyrido[4,3-b]indole-2-carbonyl)-N-(4-oxotetrahydrofuran-3-yl)-cyclohexane-1-carboxamide] |  |  | 

Further lines, the compound ahead of its results:

Row | SMILES | IC50 (Cathepsin K) [nM] | half-life [1] [min] | Cat S/K ratio of inhibitory activities (Cathepsin S) | Cat B/K ratio of inhibitory activities (Cathepsin B) | further results
3 | CC(C)(C)CN(Cc1ccc(-c2ccc(F)cc2)cc1)c1nccc(C#N)n1 [Compound K4, 2-[(2,2-dimethylpropyl){[4-(4-fluorophenyl)phenyl]methyl}amino]pyrimidine-4-carbonitrile] |  |  |  |  | reduction of clearance rate compared with Ref-03 [1]: 2 times
4 | O=C1COC[C@@H]1NC(=O)[C@@H]1CCCC[C@H]1C(=O)N1CCc2c([nH]c3c(F)cc(F)cc23)C1 [Compound K22, (1R,2R)-2-(6,8-difluoro-2,3,4,9-tetrahydro-1H-pyrido[3,4-b]indole-2-carbonyl)-N—((S)-4-oxotetrahydrofuran-3-yl)cyclohexane-1-carboxamide] | 10 to 100 | 88.5 |  |  | 
5 | CN1CCN(c2nc(-c3ccc(CN(CC(C)(C)C)c4nccc(C#N)n4)cc3)cs2)CC1 [Compound K18, 2-((4-(2-(4-methylpiperazin-1-yl)thiazol-4-yl)benzyl) (neopentyl)amino)pyrimidine-4-carbonitrile] | 10 to 100 |  | >>5,780 | >>5,780 | migration, invasion and adhesion of C4-2B cells (C4-2B cells): inhibit the migration, invasion and adhesion processes of the C4-2B cells in a concentration-dependent manner; in-vivo toxicity (overall) (ICR mice; ICR mice): relatively low in-vivo toxicity; body weight vs vehicle group (ICR mice; i.p. 50 mg/kg and 25 mg/kg once a day, one week): No significant difference; histopathology of liver, kidneys and heart vs vehicle group (ICR mice; multiple administration 50 mg/kg and single administration 500 mg/kg): no obvious pathological change was observed; body weight vs vehicle group (ICR mice; single i.p. administration 500 mg/kg and 300 mg/kg): No significant difference
